Measured values as given in patent publication US11827917B1, “Methods for the conversion of fermentable sugars to ethanol” (Colorado State University Research Foundation, priority 2020, dated 2023).
“Also recorded” adds a separate entry of the source. Marks after values point to notes of the source that are not given here.

Key:
Type in all cases: cell-based, Saccharomyces cerevisiae
S. cerevisiae JAY 270 [1] = assay: Screening of growth in 24-well plates on YPDA; settings: for Cell growth score (colony size): YPDA, 30° C., 24 h; for Effect on cell growth in the plate assay (words): tested concentrations, 24-well plates
Protocol: Procedure: An inoculum culture of S. cerevisiae JAY 270 was grown in 100 mL of yeast extract-peptone-dextrose (YPD) medium (10 g/L yeast extract, 20 g/L peptone, 20 g/L glucose) in 200-mL serum bottles overnight in a shaker at 30° C. and 200 rpm. The cells were collected by centrifuging 10 min at 4000×g and 4° C. To wash off the medium residue, the cell pellet was resuspended in 30 mL of sterile 0.8% (w/v) NaCl solution and centrifuged at 4000×g for 10 min. The cell pellet was washed twice. Finally, the cell pellet was resuspended and diluted in 0.8% (w/v) NaCl to achieve cell concentrations of OD600=0.02 and 0.2.
The eight compounds were added in YPDA separately at 0.03%, 0.05%, 0.1%, and 0.2% (w/v). The standard control treatment contained only YPDA medium without addition of these compounds. Since the TrpOH and TyrOH stock solutions were dissolved in DMSO, the controls for those tests were YPDA with the same concentration of DMSO. A 3-mL aliquot of YPDA medium with or without the test compounds were loaded in each well of the 24-well plate.
Ten μL of the prepared S. cerevisiae JAY 270 cell suspension at OD600=0.02 or 0.2 was loaded onto the YPDA medium in each well of the 24-well plates. Then the plates were sealed with Parafilm and incubated at 30° C. for 24 h. There were four biological replicates for each treatment.
Yeast cell growth was evaluated by visual observation of the colony size in the well and scored as 0, +, ++, and +++.

S. cerevisiae JAY 270 [2] = assay: Growth test in liquid YNB medium, low/high nitrogen, serum bottles; settings: 40, 200, 1000 mg/L; low and high nitrogen media
Protocol: A second set of tests was performed in a defined liquid medium, Yeast Nitrogen Base with Glucose (YNB), containing (NH4)2SO4 at either low (1 mM) or high (10 mM) nitrogen content. […] All serum bottles were incubated in a shaker at 30° C. and 150 RPM. Each treatment was performed in biological duplicate. Samples were collected at 0, 5, and 10 hours.

S. cerevisiae JAY 270 [3] = assay: Serum-bottle cultivation in YPD: biomass, glycerol, ethanol yields; settings: YPD, serum bottles
Protocol: Procedure: Cultivations in serum bottles were used to determine the effect of the best-performing screened chemicals on the ethanol yield. S. cerevisiae JAY 270 was pre-cultured in 100 mL of YPD medium in 200-mL serum bottles overnight in a shaker at 30° C. and 200 rpm. The precultured yeast cells were collected and washed twice as described above. The cell pellet was resuspended in about 10 mL of 0.8% (w/v) NaCl and the cell concentration was estimated as OD600. TyrOH, PheOH, and TrpOH were added to 30 mL of YPD medium in 100-mL serum bottles at 0.05% and 0.2% respectively. The same amount of DMSO was added to YPD medium to serve as the control for TrpOH and TyrOH treatments. The bottles were inoculated with the prepared yeast cells to obtain an initial cell concentration of OD600=0.2. The serum bottles were sealed and cultured in a shaker at 30° C. and 200 rpm for 24 h. Each condition had three biological replicates.
Analytical methods: Cell growth was evaluated by monitoring OD600 and cell dry mass concentration. For dry mass measurements, 1.0 mL of culture was transferred to a pre-dried and pre-weighed 2-mL centrifuge tube. The tubes were centrifuged for 10 min at 14000 rpm using a microcentrifuge, and then the cell pellets were dried in an oven for 3 days at 65° C. The cell dry mass was determined by subtracting the initial tube mass from the dried mass of tube with cells. The concentrations of glucose, ethanol, and glycerol were measured via HPLC (Shimadzu LC20A series) outfitted with a refractive index detector and using an Aminex HPX-87H (300×7.8 mm) organic acid column and Cation H+ guard cartridge (Bio Rad Laboratories, Hercules, CA). The column was maintained at 65° C. and the mobile phase was 5 mM sulfuric acid with a flow rate of 0.6 mL/min. Standard compound solutions were used to calibrate the HPLC. Each sample was analyzed three times by HPLC.

With Nc1nc[nH]n1 [3-amino-1,2,4-triazole] the “Cell growth score (colony size)” value (S. cerevisiae JAY 270 [1]; 0.03% (w/v)) was “+++”, the “Cell growth score (colony size)” value (S. cerevisiae JAY 270 [1]; 0.05% (w/v)) was “+++” and the “Cell growth score (colony size)” value (S. cerevisiae JAY 270 [1]; 0.10% (w/v)) was “+++”. For the same compound, the “Cell growth score (colony size)” value (S. cerevisiae JAY 270 [1]; 0.20% (w/v)) was “+++” and the “Effect on cell growth in the plate assay (words)” value (shortened to “Effect on cell growth”) (S. cerevisiae JAY 270 [1]) was “did not inhibit cell growth”.

For OB(O)O [Boric acid, reference compound], the “Cell growth score (colony size)” value (S. cerevisiae JAY 270 [1]; 0.03% (w/v)) was “+++”, the “Cell growth score (colony size)” value (S. cerevisiae JAY 270 [1]; 0.05% (w/v)) was “+++” and the “Cell growth score (colony size)” value (S. cerevisiae JAY 270 [1]; 0.10% (w/v)) was “++”. The “Cell growth score (colony size)” value (S. cerevisiae JAY 270 [1]; 0.20% (w/v)) was “+”, the “Effect on cell growth” value (S. cerevisiae JAY 270 [1]) was “inhibited growth; also recorded: reduced the growth” and the “Inhibitory effect on yeast cell growth in liquid YNB medium” value (S. cerevisiae JAY 270 [2]) was “little or no growth inhibition effects”. For the same compound, the Biomass Yield (S. cerevisiae JAY 270 [3]; 0.05% (w/v)) was 0.137 + 0.001 g/g, the “Biomass yield % change vs. control” value (S. cerevisiae JAY 270 [3]; 0.05% (w/v)) was 0% and the EtOH yield (S. cerevisiae JAY 270 [3]; 0.05% (w/v)) was 0.41 ± 0.00 g/g. The “EtOH yield % change vs. control” value (S. cerevisiae JAY 270 [3]; 0.05% (w/v)) was 0%, the Glycerol yield (S. cerevisiae JAY 270 [3]; 0.05% (w/v)) was 0.024 ± 0.001 g/g and the “Glycerol yield % change vs. control” value (S. cerevisiae JAY 270 [3]; 0.05% (w/v)) was 0%. The “Biomass yield vs. reference” value (S. cerevisiae JAY 270 [3]; 0.05%) was 0%, the Ethanol yield (S. cerevisiae JAY 270 [3]; 0.05%) was 0.41 ± 0.00 g/g and the “Ethanol yield vs. reference” value (S. cerevisiae JAY 270 [3]; 0.05%) was 0%. The Glycerol yield (S. cerevisiae JAY 270 [3]; 0.05%) was 0.024 ± 0.001 g/g, the “Glycerol yield vs. reference” value (S. cerevisiae JAY 270 [3]; 0.05%) was −6.3% and the OD600 (S. cerevisiae JAY 270 [3]; 0.05%) was 4.78. For the same compound, the “Effect on ethanol yield” value (S. cerevisiae JAY 270 [3]; 0.05 and 0.2%) was “did not affect ethanol yield”, the Biomass Yield (S. cerevisiae JAY 270 [3]; 0.2% (w/v)) was 0.116 + 0.001 g/g and the “Biomass yield % change vs. control” value (S. cerevisiae JAY 270 [3]; 0.2% (w/v)) was −15* %. For the same compound, the EtOH yield (S. cerevisiae JAY 270 [3]; 0.2% (w/v)) was 0.41 ± 0.00 g/g, the “EtOH yield % change vs. control” value (S. cerevisiae JAY 270 [3]; 0.2% (w/v)) was 0% and the Glycerol yield (S. cerevisiae JAY 270 [3]; 0.2% (w/v)) was 0.027 ± 0.001 g/g. The “Glycerol yield % change vs. control” value (S. cerevisiae JAY 270 [3]; 0.2% (w/v)) was 6.9%, the “Biomass yield vs. reference” value (S. cerevisiae JAY 270 [3]; 0.2%) was −15.3% and the Ethanol yield (S. cerevisiae JAY 270 [3]; 0.2%) was 0.41 ± 0.00 g/g. For the same compound, the “Ethanol yield vs. reference” value (S. cerevisiae JAY 270 [3]; 0.2%) was 0%, the Glycerol yield (S. cerevisiae JAY 270 [3]; 0.2%) was 0.027 ± 0.000 g/g and the “Glycerol yield vs. reference” value (S. cerevisiae JAY 270 [3]; 0.2%) was 6.9%. The OD600 (S. cerevisiae JAY 270 [3]; 0.2%) was 3.96.

With C[C@@H]1C[C@@H]([C@H](O)CC2CC(=O)NC(=O)C2)C(=O)[C@@H](C)C1 [Cycloheximide, cycloheximide, reference compound] the “Cell growth score (colony size)” value (S. cerevisiae JAY 270 [1]; 0.03% (w/v)) was 0, the “Cell growth score (colony size)” value (S. cerevisiae JAY 270 [1]; 0.05% (w/v)) was 0 and the “Cell growth score (colony size)” value (S. cerevisiae JAY 270 [1]; 0.10% (w/v)) was 0. The “Cell growth score (colony size)” value (S. cerevisiae JAY 270 [1]; 0.20% (w/v)) was 0, the “Effect on cell growth” value (S. cerevisiae JAY 270 [1]) was “inhibited all cell growth at all tested concentrations” and the “Effect on cell growth” value (S. cerevisiae JAY 270 [1]; listed as cycloheximide) was “inhibited growth; also recorded: reduced the growth”. The “Biomass yield % change vs. control” value (S. cerevisiae JAY 270 [3]; 0.1 mg/L) was −12* %, the “Biomass yield vs. reference” value (S. cerevisiae JAY 270 [3]; 0.1 mg/L) was −36.1% and the “Effect on ethanol yield” value (S. cerevisiae JAY 270 [3]; 0.1 mg/L) was “slight decrease of ethanol yield”. The EtOH yield (S. cerevisiae JAY 270 [3]; 0.1 mg/L) was 0.42 ± 0.01 g/g, the “EtOH yield % change vs. control” value (S. cerevisiae JAY 270 [3]; 0.1 mg/L) was −3.5% and the Ethanol yield (S. cerevisiae JAY 270 [3]; 0.1 mg/L) was 0.42 ± 0.01 g/g. For the same compound, the “Ethanol yield vs. reference” value (S. cerevisiae JAY 270 [3]; 0.1 mg/L) was 0%, the “Glycerol yield % change vs. control” value (S. cerevisiae JAY 270 [3]; 0.1 mg/L) was −48* % and the “Glycerol yield vs. reference” value (S. cerevisiae JAY 270 [3]; 0.1 mg/L) was 0.4%. The OD600 (S. cerevisiae JAY 270 [3]; 0.1 mg/L) was 2.82 and the OD600 (S. cerevisiae JAY 270 [3]; 0.4 mg/L) was 0.22.

CC(C)=CCCC(C)=CCCC(C)=CCO [Farnesol, farnesol] was tested, and the “Cell growth score (colony size)” value (S. cerevisiae JAY 270 [1]; 0.03% (w/v)) was “+++”, the “Cell growth score (colony size)” value (S. cerevisiae JAY 270 [1]; 0.05% (w/v)) was “+++” and the “Cell growth score (colony size)” value (S. cerevisiae JAY 270 [1]; 0.10% (w/v)) was “+++”. The “Cell growth score (colony size)” value (S. cerevisiae JAY 270 [1]; 0.20% (w/v)) was “+++” and the “Effect on cell growth” value (S. cerevisiae JAY 270 [1]) was “did not inhibit cell growth”.

In the case of CP(=O)(O)CCC(N)C(=O)O (stereo not drawn) [Glufosinate ammonium, glufosinate ammonium], the “Cell growth score (colony size)” value (S. cerevisiae JAY 270 [1]; 0.03% (w/v)) is reported as “+++”, the “Cell growth score (colony size)” value (S. cerevisiae JAY 270 [1]; 0.05% (w/v)) is reported as “+++” and the “Cell growth score (colony size)” value (S. cerevisiae JAY 270 [1]; 0.10% (w/v)) is reported as “+++”. The “Cell growth score (colony size)” value (S. cerevisiae JAY 270 [1]; 0.20% (w/v)) was “+++” and the “Effect on cell growth” value (S. cerevisiae JAY 270 [1]) was “did not inhibit cell growth”.
